pIC50: −log10 of the molar value.
Tests used:
Assay type in all cases: biochemical, canine
[1] = target: PDE I; assay: phosphodiesterase inhibition, PDE I (peak I PDE); settings: for pIC50: peak I PDE
Text: (§1) Multiple isozymic forms of cyclic nucleotide phosphodiesterase (PDE) exist in most tissues. […] A "low Km" cGMP form of PDE (also referred to as peak I PDE) also has been identified. Increases in cAMP and cGMP will relax both vascular smooth and bronchial smooth muscle. Selective PDE isozyme inhibition represents a novel subcellular mechanism by which increses in cAMP or cGMP and subsequent vaso- or broncho-relaxation may be achieved. Moreover, a component of positive inotropy may be retained, dependent upon the isozyme or tissue source specificity of an inhibitor. Thus, development of PDE isozyme inhibitors represents novel approaches for the discovery of agents useful for treating hypertension, congestive heart failure or asthma. For example, compounds having essentially high PDE III inhibitory activity are expected to have cardiotonic and vasodilatory (antihypertensive) activity. PDE isozymes (peak I and III) are isolated from canine aortic smooth, ventricular or tracheal smooth muscle sources by DEAE - cellulose column chromatography. Inhibition of both peaks by a putative inhibitor from any of these sources is quantitated. If ≥50% inhibition is detected at 30 μM, then an IC50 value and corresponding 95% confidence limits for both peaks is determined.
(§2) The procedures for the separation of the isozymes of PDE from animal tissue and the testing of the compounds of the invention for phosphodiesterase inhibition are essentially those described by Weishaar et al., Biochem. Pharmacol. 35:787-800 (1986) and Thompson et al., Adv. Cyclic Nucleotide Res. 10:69-92. Initial screening of test compounds with both peak I and peak III PDE isozymes is done at a concentration of 10, 30 or 100 μm, and each assay is performed in triplicate for each inhibitor. The IC50 values (concentration causing 50% inhibition) are then calculated from concentration-response curves as described by Tallarida and Murray, Manual of Pharmacologic Calculations with Computer Programs, Procedure 8, Graded Dose-Response, pp. 14-19, Springer-Verlag, New York, 1981.

[2] = target: T1, PDE III (Canis lupus familiaris, UniProt A0A8I3NYE0); assay: phosphodiesterase inhibition, PDE III (peak III PDE)
T1 construct: isolated from canine aortic smooth, ventricular or tracheal smooth muscle sources; from tissue; host or cells: canine aortic smooth, ventricular or tracheal smooth muscle; DEAE-cellulose peak III
T1 sequence (A0A8I3NYE0 1-1135): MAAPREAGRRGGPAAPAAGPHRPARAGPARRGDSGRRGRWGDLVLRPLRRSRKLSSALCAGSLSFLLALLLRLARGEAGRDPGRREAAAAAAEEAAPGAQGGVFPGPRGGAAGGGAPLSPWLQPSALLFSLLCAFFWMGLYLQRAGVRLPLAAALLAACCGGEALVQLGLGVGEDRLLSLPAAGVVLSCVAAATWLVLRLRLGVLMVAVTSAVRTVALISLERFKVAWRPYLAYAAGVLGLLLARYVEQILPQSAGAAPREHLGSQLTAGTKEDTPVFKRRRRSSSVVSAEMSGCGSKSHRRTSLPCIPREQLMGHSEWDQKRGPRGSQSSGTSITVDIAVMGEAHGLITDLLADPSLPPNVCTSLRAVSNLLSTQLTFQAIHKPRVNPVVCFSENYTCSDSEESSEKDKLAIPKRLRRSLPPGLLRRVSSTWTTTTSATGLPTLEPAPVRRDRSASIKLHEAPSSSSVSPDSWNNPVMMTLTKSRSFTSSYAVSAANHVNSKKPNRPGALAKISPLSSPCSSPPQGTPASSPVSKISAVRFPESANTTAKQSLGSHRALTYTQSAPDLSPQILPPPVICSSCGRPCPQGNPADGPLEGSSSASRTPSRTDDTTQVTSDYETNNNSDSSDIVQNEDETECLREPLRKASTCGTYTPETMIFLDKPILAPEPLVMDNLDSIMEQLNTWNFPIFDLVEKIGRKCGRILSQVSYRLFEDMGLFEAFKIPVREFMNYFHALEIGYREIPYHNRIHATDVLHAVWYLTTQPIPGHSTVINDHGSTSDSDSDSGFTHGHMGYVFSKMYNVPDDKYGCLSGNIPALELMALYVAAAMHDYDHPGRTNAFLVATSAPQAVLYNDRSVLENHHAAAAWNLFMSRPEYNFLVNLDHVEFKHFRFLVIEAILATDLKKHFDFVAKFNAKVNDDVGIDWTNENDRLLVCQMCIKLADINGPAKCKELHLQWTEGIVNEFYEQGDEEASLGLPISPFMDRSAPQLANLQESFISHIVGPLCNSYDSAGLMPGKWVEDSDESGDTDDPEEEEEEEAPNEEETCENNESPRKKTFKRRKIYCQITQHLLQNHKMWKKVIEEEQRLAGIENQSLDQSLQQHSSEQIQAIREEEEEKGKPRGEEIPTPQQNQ
Text: as §1, §2

[3] = test system: PDE I; assay: phosphodiesterase inhibition, PDE I (peak I PDE)
[4] = target: T1, PDE III; assay: phosphodiesterase inhibition, PDE III (peak III PDE); settings: read-out: Percent Inhibition PDE III

SMILES	pIC50 [1]	pIC50 [2]	other results
O=c1[nH]c2cc(-c3ccncc3)c(C(F)(F)F)nc2[nH]1 [1(e), 1,3-Dihydro-6-(4-pyridinyl)-5-trifluoromethyl-2H-imidazo[4,5-b]pyridin-2-one]	4.28	7.64	–
O=c1[nH]c2cc(-c3cc[n+]([O-])cc3)c(C(F)(F)F)nc2[nH]1 [1(f), 1,3-Dihydro-6-(4-pyridinyl)-5-trifluoromethyl-2H-imidazo[4,5-b]pyridin-2-one N-(py)-oxide]	–	7.54	Percent Inhibition PDE I ([3]; at 1 μM): 0%
O=c1[nH]c2cc(-c3ccncc3)c(C(F)(F)C(F)(F)F)nc2[nH]1 [2(d), 1,3-Dihydro-6-(4-pyridinyl)-5-pentafluoroethyl-2H-imidazo[4,5-b]pyridin-2-one]	4.92	5.74	–
O=c1[nH]c2cc(-c3ccnc4ccccc34)c(C(F)(F)F)nc2[nH]1 [3(e), 1,3-Dihydro-6-(4-quinolinyl)-5-trifluoromethyl-2H-imidazo[4,5-b]pyridine-2-one]	–	–	Percent Inhibition PDE I ([1]; at 100 μM): 4%; inhibition at 1 µM [4]: 9%
Cc1nc2[nH]c(=O)[nH]c2cc1-c1ccccc1 [4(c), 1,3-Dihydro-5-methyl-6-phenyl-2H-imidazo[4,5-b]pyridin-2-one]	–	6.57	Percent Inhibition PDE I ([3]; at 1000 μM): 38%
Cc1nc2[nH]c(=O)[nH]c2cc1-c1ccc([N+](=O)[O-])cc1 [Example 5, 1,3-Dihydro-5-methyl-6-(4-nitrophenyl)-2H-imidazo[4,5-b]pyridin-2-one]	–	8.05	Percent Inhibition PDE I ([3]; at 300 μM): 35%
Cc1nc2[nH]c(=O)[nH]c2cc1-c1ccc(N)cc1 [Example 6, 6-(4-Aminophenyl)-1,3-dihydro-5-methyl-2H-imidazo[4,5-b]pyridin-2-one]	4.35	6.30	–
Cc1nc2[nH]c(=O)[nH]c2cc1-c1ccc(NC(=O)C(F)(F)F)cc1 [Example 7, 1,3-Dihydro-5-methyl-6-[4-(trifluoroacetylamino)phenyl]-2H-imidazo[4,5-b]pyridin-2-one]	4.20	6.20	–
CC(=O)Nc1ccc(-c2cc3[nH]c(=O)[nH]c3nc2C)cc1 [Example 8, 6-[4-(Acetylamino)phenyl]-1,3-dihydro-5-methyl-2H-imidazo[4,5-b]pyridin-2-one]	–	6.21	Percent Inhibition PDE I ([1]; at 30 μM): 22%
Cc1nc2[nH]c(=O)[nH]c2cc1-c1ccc(NS(C)(=O)=O)cc1 [Example 9, 1,3-Dihydro-6-[4-(methanesulfonylamino)phenyl]-5-methyl-2H-imidazo[4,5-b]pyridin-2-one]	4.35	6.33	–
CCCCC(=O)Nc1ccc(-c2cc3[nH]c(=O)[nH]c3nc2C)cc1 [Example 11, 6-[4-(Butanecarbonylamino)phenyl]-1,3-dihydro-5-methyl-2H-imidazo[4,5-b]pyridin-2-one]	–	–	Percent Inhibition PDE I ([3]; at 1 μM): 0%; inhibition at 1 µM [4]: 37%
Cc1ccc(S(=O)(=O)Nc2ccc(-c3cc4[nH]c(=O)[nH]c4nc3C)cc2)cc1 [Example 12, 1,3-Dihydro-5-methyl-6-[4-(p-toluenesulfonylamino)phenyl]-2H-imidazo[4,5-b]pyridin-2-one]	–	–	Percent Inhibition PDE I ([3]; at 1 μM): 13%; inhibition at 1 µM [4]: 64%

Second part, led by results:

pIC50 [1]	pIC50 [2]	SMILES	other results
5.05	7.03	CCCCS(=O)(=O)Nc1ccc(-c2cc3[nH]c(=O)[nH]c3nc2C)cc1 [Example 10, 6-[4-(Butanesulfonylamino)phenyl]-1,3-dihydro-5-methyl-2H-imidazo[4,5-b]pyridin-2-one]	–
5.25	7.28	CCCCCCS(=O)(=O)Nc1ccc(-c2cc3[nH]c(=O)[nH]c3nc2C)cc1 [Example 13, 1,3-Dihydro-6-[4-(hexanesulfonylamino)phenyl]-5-methyl-2H-imidazo[4,5-b]pyridin-2-one]	–
5.80	7.26	Cc1nc2[nH]c(=O)[nH]c2cc1-c1ccc(NS(=O)(=O)c2cccc3cccnc23)cc1 [Example 14, 1,3-Dihydro-6-[4-(8-quinolinylsulfonylamino)phenyl]-5-methyl-2H-imidazo[4,5-b]pyridin-2-one]	–
3.50	6.98	CCCNC(=O)Nc1ccc(-c2cc3[nH]c(=O)[nH]c3nc2C)cc1 [Example 15, 1,3-Dihydro-6-[4-(N'-propylureido)phenyl]-5-methyl-2H-imidazo[4,5-b]pyridin-2-one]	–
